Experimental findings from patent US12139520B2 (priority 2020, dated 2024) are described below.

Data set [1] has as its target T1, hAMY3 receptor (Homo sapiens, UniProt O60896+P30988).
T1 sequence (P30988 25-474): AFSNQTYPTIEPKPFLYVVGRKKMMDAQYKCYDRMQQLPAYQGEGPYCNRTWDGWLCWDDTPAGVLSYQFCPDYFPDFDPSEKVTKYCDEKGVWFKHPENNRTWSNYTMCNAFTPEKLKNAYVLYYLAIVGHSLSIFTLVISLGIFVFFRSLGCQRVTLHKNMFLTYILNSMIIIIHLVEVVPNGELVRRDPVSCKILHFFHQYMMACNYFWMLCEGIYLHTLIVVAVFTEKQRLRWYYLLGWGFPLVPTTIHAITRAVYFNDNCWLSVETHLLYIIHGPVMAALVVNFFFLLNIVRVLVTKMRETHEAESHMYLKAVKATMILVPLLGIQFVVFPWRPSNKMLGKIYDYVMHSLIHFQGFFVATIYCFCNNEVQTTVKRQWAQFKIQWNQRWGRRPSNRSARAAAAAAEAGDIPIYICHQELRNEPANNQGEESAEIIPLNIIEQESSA
T1 sequence (O60896 24-148 partner): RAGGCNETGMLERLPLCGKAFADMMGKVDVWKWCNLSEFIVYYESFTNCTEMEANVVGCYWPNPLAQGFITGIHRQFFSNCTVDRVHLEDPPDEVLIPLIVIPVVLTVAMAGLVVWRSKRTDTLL
Description: cAMP assay for in vitro receptor activation, hAMY3-R. In kind it is cell-based. As to conditions: cAMP assay, hAMY3 receptor; read-out: hAMY3R EC50. The method in brief:
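Accumulated cAMP was detected by time-resolved FRET one hour after reagent addition. Beforehand, hAMY3-R-overexpressing monoclonal cells (2000/well, DPBS, 0.05% casein, 0.5 mM IBMX) received graded doses of compound for 30 min at room temperature; human amylin served as positive control.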

Data set [2] addresses hAM1 receptor (Homo sapiens, UniProt O60895+Q16602). The data set can be described thus: cAMP assay for in vitro receptor activation, hAM1-R. The class given is cell-based. As to conditions: cAMP assay, hAM1 receptor; read-out: hAM1R EC50. Summed up:
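Stable hAM1 cells (monoclonal) plated 8000/well; buffer DPBS, 0.05% casein, 0.5 mM IBMX; cAMP read-out.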

The nature of data set [3]: Physical stability of peptide analogues (Thioflavin T fibrillation). As to conditions: maximum ThT signal normalized between hAMY maximum and buffer background; 40° C., shaking, four days; pH 7 per table title. In kind it is physicochemical. The method in brief: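 Peptides in 50 mM sodium acetate pH 4 or 50 mM sodium phosphate pH 7 were preincubated 1 h, mixed with 4 μM ThT, held at 40° C with 700 rpm shaking before each read. Fluorescence (ex 450/em 480 nm) every 10 min for four days; LOESS-smoothed maximum signal normalized in percent between hAMY and buffer.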

Bridge positions count the residues as written; N and C are the ends. Square brackets hold non-standard residues; d marks the D form. Peptide text beside a SMILES is read from it. Hyp = O=C(O)[C@@H]1C[C@@H](O)CN1

hAM1 receptor, sequence (Q16602 23-461): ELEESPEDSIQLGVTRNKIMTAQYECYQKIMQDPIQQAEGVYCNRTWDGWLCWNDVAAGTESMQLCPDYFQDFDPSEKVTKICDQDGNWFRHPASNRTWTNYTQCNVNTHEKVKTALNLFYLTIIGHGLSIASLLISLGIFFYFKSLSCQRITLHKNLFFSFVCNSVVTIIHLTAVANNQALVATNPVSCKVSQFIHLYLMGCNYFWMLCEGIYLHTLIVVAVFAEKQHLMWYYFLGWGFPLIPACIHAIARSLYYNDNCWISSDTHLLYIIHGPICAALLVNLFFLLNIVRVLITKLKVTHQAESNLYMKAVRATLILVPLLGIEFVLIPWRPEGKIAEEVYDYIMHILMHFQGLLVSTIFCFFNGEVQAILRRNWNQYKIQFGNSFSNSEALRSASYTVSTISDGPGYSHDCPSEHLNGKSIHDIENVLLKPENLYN
hAM1 receptor, sequence (O60895 43-175 partner): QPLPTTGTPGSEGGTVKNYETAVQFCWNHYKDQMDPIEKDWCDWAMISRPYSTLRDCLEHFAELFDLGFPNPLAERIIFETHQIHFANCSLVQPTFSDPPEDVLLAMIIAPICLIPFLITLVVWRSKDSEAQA

In the case of `CC(C)C[C@H](NC(=O)[C@H](Cc1c[nH]c2ccccc12)NC(=O)[C@H](CCC(N)=O)NC(=O)[C@@H](NC(=O)[C@@H](NC(=O)[C@@H]1CSSC[C@H](NC(=O)CN)C(=O)N[C@@H](CCCNC(=N)N)C(=O)N[C@@H](Cc2ccccc2)C(=O)NCC(=O)N[C@@H]([C@@H](C)O)C(=O)N1)[C@@H](C)O)C(C)C)C(=O)N[C@@H](C)C(=O)N[C@@H](Cc1c[nH]cn1)C(=O)N[C@@H](Cc1ccccc1)C(=O)N[C@@H](CC(C)C)C(=O)N[C@@H](Cc1ccc(O)cc1)C(=O)N[C@@H](CCC(N)=O)C(=O)N[C@@H](Cc1ccccc1)C(=O)N[C@H](C(=O)N[C@@H](CC(=O)O)C(=O)N[C@@H](CCCCN)C(=O)N[C@@H](CC(=O)O)C(=O)N[C@@H](CCCCN)C(=O)N[C@@H](CC(=O)O)C(=O)N[C@@H](CC(N)=O)C(=O)N[C@H](C(=O)N[C@@H](C)C(=O)N1CCC[C@H]1C(=O)N[C@@H](CCCNC(=N)N)C(=O)N[C@H](C(=O)N[C@@H](CC(N)=O)C(=O)N[C@H](C(=O)NCC(=O)N1CCC[C@H]1C(=O)N[C@@H](CCC(N)=O)C(=O)NCC(=O)N[C@@H](Cc1ccc(O)cc1)C(N)=O)C(C)C)[C@@H](C)O)C(C)C)[C@@H](C)O` [compound 326] (H-GCRFGTCTVQWLAHFLYQFTDKDKDNVAPRTNVGPQGY-NH2; disulfide 2-7; N-terminus assumed), the EC50 was 0.053 nM in data set [1] and above 5000 nM in data set [2]. Moreover, the “Max ThT signal (%)” value in data set [3] came to 2.350%.
`CC(C)C[C@H](NC(=O)[C@H](Cc1c[nH]c2ccccc12)NC(=O)[C@H](CCC(N)=O)NC(=O)[C@@H](NC(=O)[C@@H](NC(=O)[C@@H]1CSSC[C@H](NC(=O)CN)C(=O)N[C@@H](CCCNC(=N)N)C(=O)N[C@@H](Cc2ccccc2)C(=O)NCC(=O)N[C@@H]([C@@H](C)O)C(=O)N1)[C@@H](C)O)C(C)C)C(=O)N[C@@H](C)C(=O)N[C@@H](Cc1c[nH]cn1)C(=O)N[C@@H](Cc1ccccc1)C(=O)N[C@@H](CC(C)C)C(=O)N[C@@H](Cc1ccc(O)cc1)C(=O)N[C@@H](CCC(N)=O)C(=O)N[C@@H](Cc1ccccc1)C(=O)N[C@H](C(=O)N[C@@H](CC(=O)O)C(=O)N[C@@H](CCCCN)C(=O)N[C@@H](CC(=O)O)C(=O)N[C@@H](CCCCN)C(=O)N[C@@H](CC(=O)O)C(=O)N[C@@H](CC(N)=O)C(=O)N[C@H](C(=O)N[C@@H](C)C(=O)N1CCC[C@H]1C(=O)N[C@@H](CCCNC(=N)N)C(=O)N[C@H](C(=O)N[C@@H](CC(N)=O)C(=O)N[C@H](C(=O)NCC(=O)N[C@@H](CO)C(=O)N[C@@H](CC(N)=O)C(=O)N[C@H](C(=O)N[C@@H](Cc1ccc(O)cc1)C(N)=O)[C@@H](C)O)C(C)C)[C@@H](C)O)C(C)C)[C@@H](C)O` [compound 327] (H-GCRFGTCTVQWLAHFLYQFTDKDKDNVAPRTNVGSNTY-NH2; disulfide 2-7; N-terminus assumed): the half-maximal effective concentration (EC50) in data set [1] is 0.09 nM; in data set [2] it was above 5000 nM. In data set [3], the “Max ThT signal (%)” value was determined as 3.600%.
Take `CC[C@H](C)[C@H](NC(=O)[C@H](CCC(N)=O)NC(=O)[C@H](Cc1c[nH]cn1)NC(=O)[C@H](C)NC(=O)[C@H](CC(C)C)NC(=O)[C@H](Cc1c[nH]c2ccccc12)NC(=O)[C@H](CCC(N)=O)NC(=O)[C@@H](NC(=O)[C@@H](NC(=O)[C@@H]1CSSC[C@H](NC(=O)[C@@H](N)CCCCN)C(=O)N[C@@H](CC(N)=O)C(=O)N[C@@H]([C@@H](C)O)C(=O)N[C@@H](C)C(=O)N[C@@H]([C@@H](C)O)C(=O)N1)[C@@H](C)O)C(C)C)C(=O)N[C@@H](Cc1ccc(O)cc1)C(=O)N[C@@H](CCC(N)=O)C(=O)N[C@@H](Cc1ccccc1)C(=O)N[C@H](C(=O)N[C@@H](CC(=O)O)C(=O)N[C@@H](C)C(=O)N[C@@H](CC(=O)O)C(=O)N[C@@H](CCCCN)C(=O)N[C@@H](CC(=O)O)C(=O)N[C@@H](CC(N)=O)C(=O)N[C@H](C(=O)N[C@@H](C)C(=O)N1CCC[C@H]1C(=O)N1CCC[C@H]1C(=O)N[C@H](C(=O)N[C@@H](CC(N)=O)C(=O)N[C@H](C(=O)NCC(=O)N[C@@H](CO)C(=O)N[C@@H](CC(N)=O)C(=O)NCC(=O)N1C[C@H](O)C[C@H]1C(N)=O)C(C)C)[C@@H](C)O)C(C)C)[C@@H](C)O` [compound 328] (H-KCNTATCTVQWLAHQIYQFTDADKDNVAPPTNVGSNG[Hyp]-NH2; disulfide 2-7; N-terminus assumed): the EC50 is 0.01 nM in data set [1] and above 5000 nM in data set [2]. For the same compound, the “Max ThT signal (%)” value in data set [3] worked out at 33.250%.
As to `CC[C@H](C)[C@H](NC(=O)[C@H](CCC(N)=O)NC(=O)[C@H](Cc1c[nH]cn1)NC(=O)[C@H](C)NC(=O)[C@H](CC(C)C)NC(=O)[C@H](Cc1c[nH]c2ccccc12)NC(=O)[C@H](CCC(N)=O)NC(=O)[C@@H](NC(=O)[C@@H](NC(=O)[C@@H]1CSSC[C@H](NC(=O)[C@@H](N)CCCCN)C(=O)N[C@@H](CC(N)=O)C(=O)N[C@@H]([C@@H](C)O)C(=O)N[C@@H](C)C(=O)N[C@@H]([C@@H](C)O)C(=O)N1)[C@@H](C)O)C(C)C)C(=O)N[C@@H](Cc1ccc(O)cc1)C(=O)N[C@@H](CCC(N)=O)C(=O)N[C@@H](Cc1ccccc1)C(=O)N[C@@H](CC(=O)O)C(=O)N[C@@H](CCCCN)C(=O)N[C@@H](CC(=O)O)C(=O)N[C@@H](CCCCN)C(=O)N[C@@H](CC(=O)O)C(=O)N[C@@H](CC(N)=O)C(=O)N[C@H](C(=O)N[C@@H](C)C(=O)N1CCC[C@H]1C(=O)N1CCC[C@H]1C(=O)N[C@H](C(=O)N[C@@H](CC(N)=O)C(=O)N[C@H](C(=O)NCC(=O)N[C@@H](CO)C(=O)N[C@@H](CC(N)=O)C(=O)NCC(=O)N1C[C@H](O)C[C@H]1C(N)=O)C(C)C)[C@@H](C)O)C(C)C` [compound 329] (H-KCNTATCTVQWLAHQIYQFDKDKDNVAPPTNVGSNG[Hyp]-NH2; disulfide 2-7; N-terminus assumed), the figures for the EC50 in data set [1] and in data set [2] were 0.032 nM and above 5000 nM, respectively. Also, the “Max ThT signal (%)” value in data set [3] amounted to 6.350%.
With `CC[C@H](C)[C@H](NC(=O)[C@H](CCC(N)=O)NC(=O)[C@H](Cc1c[nH]cn1)NC(=O)[C@H](C)NC(=O)[C@H](CC(C)C)NC(=O)[C@H](Cc1c[nH]c2ccccc12)NC(=O)[C@H](CCC(N)=O)NC(=O)[C@@H](NC(=O)[C@@H](NC(=O)[C@@H]1CSSC[C@H](NC(=O)[C@@H](N)CCCCN)C(=O)N[C@@H](CC(N)=O)C(=O)N[C@@H]([C@@H](C)O)C(=O)N[C@@H](C)C(=O)N[C@@H]([C@@H](C)O)C(=O)N1)[C@@H](C)O)C(C)C)C(=O)N[C@@H](Cc1ccc(O)cc1)C(=O)N[C@@H](CCC(N)=O)C(=O)N[C@@H](Cc1ccccc1)C(=O)N[C@H](C(=O)N[C@@H](CC(=O)O)C(=O)N[C@@H](CCCCN)C(=O)N[C@@H](CC(=O)O)C(=O)N[C@@H](CCCCN)C(=O)N[C@@H](CC(=O)O)C(=O)N[C@@H](CC(N)=O)C(=O)N[C@H](C(=O)N[C@@H](C)C(=O)N1CCC[C@H]1C(=O)N1CCC[C@H]1C(=O)N[C@H](C(=O)N[C@@H](CC(N)=O)C(=O)N[C@H](C(=O)NCC(=O)N[C@@H](CO)C(=O)N[C@@H](CC(N)=O)C(=O)NCC(=O)N1C[C@H](O)C[C@H]1C(N)=O)C(C)C)[C@@H](C)O)C(C)C)[C@@H](C)O` [compound 330] (H-KCNTATCTVQWLAHQIYQFTDKDKDNVAPPTNVGSNG[Hyp]-NH2; disulfide 2-7; N-terminus assumed), the EC50 was 0.008 nM in data set [1] and above 5000 nM in data set [2]. In addition, the “Max ThT signal (%)” value in data set [3] is recorded as 14.600%.
Consider `CC[C@H](C)[C@H](NC(=O)[C@H](CCC(N)=O)NC(=O)[C@H](Cc1c[nH]cn1)NC(=O)[C@H](C)NC(=O)[C@H](CC(C)C)NC(=O)[C@H](Cc1c[nH]c2ccccc12)NC(=O)[C@H](CCC(N)=O)NC(=O)[C@@H](NC(=O)[C@@H](NC(=O)[C@@H]1CSSC[C@H](NC(=O)CN)C(=O)N[C@@H](CCCNC(=N)N)C(=O)N[C@@H]([C@@H](C)O)C(=O)NCC(=O)N[C@@H]([C@@H](C)O)C(=O)N1)[C@@H](C)O)C(C)C)C(=O)N[C@@H](Cc1ccc(O)cc1)C(=O)N[C@@H](CCC(N)=O)C(=O)N[C@@H](Cc1ccccc1)C(=O)N[C@H](C(=O)N[C@@H](CC(=O)O)C(=O)N[C@@H](CCCCN)C(=O)N[C@@H](CC(=O)O)C(=O)N[C@@H](CCCCN)C(=O)N[C@@H](CC(=O)O)C(=O)N[C@@H](CC(N)=O)C(=O)N[C@H](C(=O)N[C@@H](C)C(=O)N1CCC[C@H]1C(=O)N[C@@H](CCCNC(=N)N)C(=O)N[C@H](C(=O)N[C@@H](CC(N)=O)C(=O)N[C@H](C(=O)NCC(=O)N1CCC[C@H]1C(=O)N[C@@H](CC(N)=O)C(=O)NCC(=O)N[C@@H](Cc1ccc(O)cc1)C(N)=O)C(C)C)[C@@H](C)O)C(C)C)[C@@H](C)O` [compound 332] (H-GCRTGTCTVQWLAHQIYQFTDKDKDNVAPRTNVGPNGY-NH2; disulfide 2-7; N-terminus assumed), for which the values for the concentration giving a half-maximal response (EC50) in data set [1] and in data set [2] were 0.007 nM and above 5000 nM, respectively. In addition, the “Max ThT signal (%)” value in data set [3] came to 2.100%.

By EC50 is commonly meant the concentration giving half of the maximal effect.
